From patent US20180369327A1, “METHOD FOR TREATING OR PREVENTING OSTEOARTHRITIS” (Dong-A University Research Foundation for Industry-Academy …, priority 2017, published 2018) come the findings set out here.

Entries after “also recorded” stand apart in the source; their conditions may differ.

In experiment [1] the test system is rat articular chondrocytes. As to the kind of experiment: Cell viability assay (automated trypan blue exclusion). It is filed as cell-based. The settings on record: n=4. Here is the method:
Rat articular chondrocytes for primary culture were isolated from knee joint cartilage slices by enzymatic digestion for 1 h with 0.2% type II collagenase (381 units/mg) in DMEM. After the isolated cells were collected by brief centrifugation, they were resuspended in DMEM supplemented with 10% (v/v) FBS, […] streptomycin and 50 units/ml penicillin (Gibco). The cells were plated on culture dishes at a density of 5×10^4 cells/cm^2. The medium was replaced every 2 days, and they reached confluence after approximately 5 days in culture. In each experiment, the cells from three animals were pooled and analyzed three times.
FFA were dissolved in absolute ethanol at a concentration of 500 mM and diluted to final concentrations of FFAs with the appropriate concentration of 1% (w/v) FFA-free BSA. Controls were incubated with equal concentrations of FFA-free BSA containing ethanol. To examine the effect of several chemicals, cells were pretreated with 150 μg/mL DRB or 30 μM cilostazol for 24 h or 25 ng/ml TNF-α for 3 h before FFA treatment.
siRNA transfection or combination treatment with FFAs. Transfection of siRNA was performed with the use of siPORT Amine and Opti-MEM media. Cells grown to a confluence of 40% to 50% in six-well plates were transfected with 100 nM final siRNA concentration per well. Transfection mixture was added to each well, and incubation occurred for 4 h. Then 2 ml of growth medium was added, and cells were incubated for another 20 h. After siRNA transfection medium was removed, each well was washed in PBS solution. Cells were treated with FFAs for 24 hours.
Recombinant adenoviral STAMP2 was prepared as described previously34. Cells (1×10^7) were infected with recombinant adenoviral STAMP2 at multiplicities of infection (MOI) of 500, 1000 and 1500 to the medium.
An automated trypan blue exclusion assay was undertaken. Total cells and trypan bluestained (i.e., nonviable) cells were counted, and the percentage of nonviable cells was calculated using the Vi-Cell cell counter (Beckman Coulter, Miami, Fla., USA).

Experiment [2] has as its system STAMP2. As to the kind of experiment: Western blot of STAMP2 protein in articular chondrocytes. It is filed as cell-based, rat. The settings on record: n=4. Here is the method:
(§1) Rat articular chondrocytes for primary culture were isolated from knee joint cartilage slices by enzymatic digestion for 1 h with 0.2% type II collagenase (381 units/mg) in DMEM. After the isolated cells were collected by brief centrifugation, they were resuspended in DMEM supplemented with 10% (v/v) FBS, […] streptomycin and 50 units/ml penicillin (Gibco). The cells were plated on culture dishes at a density of 5×10^4 cells/cm^2. The medium was replaced every 2 days, and they reached confluence after approximately 5 days in culture. In each experiment, the cells from three animals were pooled and analyzed three times. FFA were dissolved in absolute ethanol at a concentration of 500 mM and diluted to final concentrations of FFAs with the appropriate concentration of 1% (w/v) FFA-free BSA. Controls were incubated with equal concentrations of FFA-free BSA containing ethanol. […] Cell (2×10^6) were washed twice with ice-cold PBS. Cells were resuspended in lysis buffer [200 ll of icecold solubilizing buffer (300 mM NaCl, 50 mM Tris-Cl (pH 7.6), 0.5% Triton X-100, protease inhibitor cocktail)] and incubated at 4° C. for 30 min. The lysates were centrifuged at 14,000 rpm for 20 min at 4° C. The protein concentrations of the cell lysates were measured with the Bradford protein assay reagent (Bio-Rad). Then, 50 μg of proteins was loaded onto 15 SDS-PAGE. The separated proteins were transferred to nitrocellulose membranes (Amersham Pharmacia Biotech, Piscataway, N.J., USA) and probed with each antibody. Immunostaining with the antibodies was carried out using the Super Signal West Pico enhanced chemiluminescence substrate and detected with LAS-3000PLUS.
A general note: Immunoblotting shows a protein as a band on a membrane.

In experiment [3] the test system is rat articular chondrocytes. Kind of experiment: Total cytosol FFA content measurement. Format: cell-based. Here is the method: Cell were collected after treatment with trypsin (0.2% trypsin, 0.02% EDTA and 0.2% glucose in PBS) and pelleted by centrifugation (200×g for 5 min at 4° C.). Cell pellet was resuspended in ice-cold hypotonic lysis medium containing 20 mM Tris-HCl, pH 7.4 and 1 mM EDTA. Cells were homogenized with a Dounce homogenizer and then centrifuged (800×g for 5 min at 4° C.). The post-nuclear supernatant fraction was ultra-centrifuged ([…] for 5 min at 4° C.) using Beckman Table-top ultracentrifuge. LD fraction with the distinct white band on the preparation was removed with a pipetman and LD-free cytosol was used for FFA measurement. Cytosol FFA levels were measured using a commercial free fatty acid quantification kit from Abcam (ab65341).

Experiment [4] relates to caspase-3 and -7. As to the kind of experiment: Western blot of apoptosis-related factors (caspase-3 and -7 activation). Format: cell-based, rat. To be noted: 100 μM DRB with 1 mM oleate; n=4. Here is the method:
as §1, with “The lysates were centrifuged at 14,000 rpm for 20 min at 4° C.” left out, “Then, 50 μg of proteins was loaded onto 15 SDS-PAGE. The separated proteins were transferred to nitrocellulose membranes (Amersham Pharmacia Biotech, Piscataway, N.J., USA) and probed with each antibody.” left out

Experiment [5] relates to FSP27. As to the kind of experiment: Western blot of FSP27 protein in articular chondrocytes. It is filed as cell-based, rat. The settings on record: n=4. Here is the method: as §1
The subject of experiment [6] is lipid droplets (LD) in rat articular chondrocytes. As to the kind of experiment: Lipid droplet staining (Nile red, BODIPY), confocal microscopy and quantification. It is filed as cell-based. Here is the method: Rat articular chondrocytes for primary culture were isolated from knee joint cartilage slices by enzymatic digestion for 1 h with 0.2% type II collagenase (381 units/mg) in DMEM. After the isolated cells were collected by brief centrifugation, they were resuspended in DMEM supplemented with 10% (v/v) FBS, […] streptomycin and 50 units/ml penicillin (Gibco). The cells were plated on culture dishes at a density of 5×10^4 cells/cm^2. The medium was replaced every 2 days, and they reached confluence after approximately 5 days in culture. In each experiment, the cells from three animals were pooled and analyzed three times. FFA were dissolved in absolute ethanol at a concentration of 500 mM and diluted to final concentrations of FFAs with the appropriate concentration of 1% (w/v) FFA-free BSA. Controls were incubated with equal concentrations of FFA-free BSA containing ethanol. […] Cells cultured on a coverslip were incubated with diluted Nile red or BODIPY 493/503. Some sections were double-labelled with TUNEL and BODIPY 493/503 and counterstained with Hoechst 33342. Fluorescence images were observed and analyzed using a Zeiss LSM 510 laser-scanning confocal microscope (Goettingen, Germany). Twenty cells from each experiment were observed and auantification of fluorescence intensity of the confocal images were obtained with the use of ImageJ software. Fluorescence intensity was expressed as AU.

Experiment [7] concerns rat articular chondrocytes. Kind of experiment: Phase contrast microscopy of oleate-induced cell death. Format: cell-based. The settings on record: 25 ng/ml TNF-α, 1.5 mM oleate; n=4.

Consider zVAD-fmk, for which the “effect on oleate-induced cell death (viability)” value in experiment [1] (zVAD-fmk with 1.5 mM oleate) is recorded as “significantly prevented 1.5 mM oleate-induced cell death”.
`CCCCCCCCCCCCCCCCCC(=O)O` [stearate, stearic acid]: the cell viability result in experiment [1] (FFA alone at 0.5 to 2 mM) is on record as “significantly reduced cell viability”. Further, the “expression level of STAMP2” value in experiment [2] (FFA at toxic concentrations) is recorded as “reduced the expression level of STAMP2”.
With `OC[C@H]1O[C@@H](n2cnc3cc(Cl)c(Cl)cc32)[C@H](O)[C@@H]1O` [DRB, 5,6-dichlorobenzimidazol riboside], the “FFA level in the cytosol” value in experiment [3] (1.0 mM oleate with DRB versus without) was “significantly increased the FFA level in the cytosol”; in experiment [3] (cells treated with 0.6 mM palmitate and 0.4 mM oleate, n=4) it was “significantly increased the FFA level in the cytosol”. In addition, the “activation of caspase-7 and -3” value in experiment [4] was “activated caspase-7 and -3”. Moreover, the “influence on lipotoxicity of oleate/palmitate combination (viability)” value in experiment [1] (0.4 mM oleate with 0.6 or 1.6 mM palmitate) was “reciprocal influences on lipotoxicity”. For the same compound, in experiment [5] (100 μM DRB with 1 mM oleate), the “level of FSP27 protein” value is recorded as “decreased the levels of FSP27 protein”. In experiment [5] (DRB), the “expression level of FSP27” value was “decreased”. In experiment [2] (DRB), the “expression level of STAMP2” value is “decreased”. Besides, in experiment [6] (DRB in cells treated with 0.4 mM oleate and 0.6 mM palmitate), the LD accumulation entry is “significantly reduced the LD accumulation”. Moreover, the “LD size and LD accumulation” value in experiment [6] (DRB pre-/co-treatment, 1 mM oleate) was “reversed oleate-induced LD enlargement; also recorded: reduces LD size and LD accumulation”. Besides, the “total LD volume” value in experiment [6] (co-treatment with DRB versus 1 mM oleate, n=4) is on record as “significantly decreased”.
For TNF-α, the “effect on oleate-induced cell death (viability)” value in experiment [1] (25 ng/ml TNF-α, 1.5 mM oleate) is “completely reversed 1.5 mM oleate-induced cell death; also recorded: prevented 1.5 mM oleate-induced cell death”. The “effect on oleate-induced cell death (phase contrast microscopy)” value in experiment [7] is reported as “prevented oleate-induced cell death”. The “effect on oleate-induced downregulation of STAMP2 protein” value in experiment [2] (25 ng/ml TNF-α, 1.5 mM oleate) was “completely reversed the 1.5 mM oleate-induced downregulation of the expression level of STAMP2 protein; also recorded: reversed 1.5 mM oleate (0)-induced downregulation of STAMP2 protein”. The “effect on oleate-induced reduction of LD size and total LD volume” value in experiment [6] (TNF-α, 1.5 mM oleate) was “completely reversed the 1.5 mM oleate-induced reduction in total LD volume; also recorded: reversed 1.5 mM oleate-induced reduction of LD size and total LD volume”.
